Test results as given in PMC6891756, “Synthesis and Biological Evaluation of Novel Aminochalcones as Potential Anticancer and Antimicrobial Agents” (Molecules, 2019).
Converted amounts (≈) assume the structure as drawn.

Key:
HT-29 = test: SRB antiproliferative assay, HT-29; format: cell-based, human; settings: Homo sapiens, HT-29; SRB, 48 h, 1–100 µg·mL^−1; ND = not detected in the tested concentration range
Experimental: (§1) Anticancer activity was evaluated using the sulforhodamine B assay (SRB) on four different human colon cancer cell lines: HT-29, LS180, LoVo and LoVo/DX and green monkey kidney fibroblasts COS7 (ATCC, Manassas, VA, USA). Cell lines HT-29 and COS7 were cultured in α-MEM medium (IIET PAS, Wrocław, Poland), LS180 in OptiMEM medium (IIET PAS), LoVo and LoVo/DX in mixture of α-MEM and OptiMEM medium (1:1 (v:v)). Each culture medium was supplemented with 10% fetal bovine serum, 2 mM glutamine, 100 μg·mL^−1 penicillin, 100 μg·mL^−1 streptomycin and 0.25 μg·mL^−1 amphotericin (all supplements purchased from Gibco (Paisley, UK). Cells were incubated at 37 °C, 5% CO2 in HeraCELL 150i incubator (Thermo Fisher Scientific, Waltham, MA, USA).
(§2) For the SRB assay, cells were seeded onto 96-well plates (Sarstedt, Nümbrecht, Germany) at a density of 5·10^3/well and cultured overnight as described above. Then, the growth medium was gently removed and replaced with fresh medium, supplemented with aminochalcone derivatives in the concentration ranging from 1 µg·mL^−1 to 100 µg·mL^−1. All stock solutions were prepared in DMSO at a concentration of 10 mg·mL^−1. Cells were incubated for 48 h and then the SRB assay was performed as described previously. Each experiment was performed in quadruplicate. The final results were reported as the IC50 values calculated for three independent experiments. Cisplatin (Acros Organics, Waltham, MA, USA) and doxorubicin (Fisher BioReagents, Waltham, MA, USA) were used as positive controls of the test.

LS180 = test: SRB antiproliferative assay, LS180; format: cell-based, human; settings: Homo sapiens, LS180, 48 h, 1–100 µg·mL^−1, ND = not detected in the tested concentration range
Experimental: as §1, §2

LoVo = test: SRB antiproliferative assay, LoVo; format: cell-based, human; settings: Homo sapiens, LoVo, 48 h, 1–100 µg·mL^−1, ND = not detected in the tested concentration range
Experimental: as §1, §2

LoVo/DX = test: SRB antiproliferative assay, LoVo/DX; format: cell-based, human; settings: Homo sapiens, LoVo/DX, 48 h, 1–100 µg·mL^−1, ND = not detected in the tested concentration range
Experimental: as §1, §2

[1] = SRB assay, normal fibroblasts COS7; format: cell-based, green monkey; settings: green monkey, COS7 kidney fibroblasts (normal cell line), ND = not detected in the tested concentration range
Experimental: as §1, §2

[2] = system: Escherichia coli ATCC10536; test: Microbial growth curve screening, E. coli; format: cell-based; settings: 0.1% (w/v), OD at 560 nm, control 1.61
Experimental: (§3) The antimicrobial screening tests were performed on two strains of bacteria: E. coli ATCC10536 and S. aureus DSM799, strain of yeast C. albicans DSM1386 and three strains of fungi: F. linii KB-F1, A. alternata CBS1526 and A. niger DSM1957. All microorganisms were obtained from the collection of the Faculty of Biotechnology and Food Microbiology, Wrocław University of Environmental and Life Sciences. The bacteria were cultured in nutrient broth (Biocorp, Warsaw, Poland), yeast and fungi in YM medium (3 g yeast extract, 3 g malt extract, 5 g bacteriological peptone and 10 g of glucose dissolved in 1 L of distilled water). The tests were carried out in 100-well microtiter plates. To each well 280 μL of culture medium, 10 μL of microorganism suspension and 10 μL of aminochalcone (1–18) dissolved in dimethyl sulfoxide (3% (w/v)) were added. The final concentration of the tested compound (1–18) was 0.1% (w/v). Each experiment were performed in 3 replications. The optical density of the cell suspension was measured on Bioscreen C (Automated Growth Curve Analysis System Lab System, Vantaa, Finland) at 560 nm automatically, at regular intervals of 30 min for 2–3 days. Cell cultures were maintained at 28 °C on a continuous shaker. To prepare the growth curves for each strain, the mean values of the absorbance in a function of time were used. The resulting antimicrobial activity was expressed as the increase of optical density (ΔOD) and was compared to that of the control cultures in the medium supplemented with dimethyl sulfoxide and also with reference substances: oxytetracycline (against bacteria), cycloheximide (against yeast) and nystatin (against fungi) (Sigma Aldrich).

[3] = system: Staphylococcus aureus DSM799; test: Microbial growth curve screening, S. aureus; format: cell-based; settings: 0.1% (w/v); for ∆OD S. aureus: OD at 560 nm, control 1.67; for Lag-phase S. aureus: control 2.5 h
Experimental: as §3

Candida albicans DSM1386 = test: Microbial growth curve screening, C. albicans; format: cell-based; settings: 0.1% (w/v); for ∆OD C. albicans: OD at 560 nm, control 1.58; for Lag-phase C. albicans: control 3.0 h
Experimental: as §3

[4] = system: Alternaria alternata CBS1526; test: Microbial growth curve screening, A. alternata; format: cell-based; settings: 0.1% (w/v); for ∆OD A. alternata: OD at 560 nm, control 1.86; for Lag-phase A. alternata: control 16.5 h
Experimental: as §3

Fusarium linii KB-F1 = test: Microbial growth curve screening, F. linii; format: cell-based; settings: 0.1% (w/v); for ∆OD F. linii: OD at 560 nm, control 1.95; for Lag-phase F. linii: control 13.5 h
Experimental: as §3

[5] = system: Aspergillus niger DSM1957; test: Microbial growth curve screening, A. niger; format: cell-based; settings: 0.1% (w/v); for ∆OD A. niger: OD at 560 nm, control 2.14; for Lag-phase A. niger: control 11.0 h
Experimental: as §3

[6] = system: Escherichia coli ATCC10536; test: MIC evaluation (broth method), E. coli; format: cell-based; settings: 48–72 h, read-out: Minimal inhibitory concentration E. coli
Experimental: (§4) Sterile 96-well microtiter plates (Sarstedt) with nutrient broth (for bacteria) (Biocorp) or YM medium (for yeast and filamentous fungi) were inoculated with a standardized cell suspension of bacteria and yeast or fungal spores of 10^5 cell·mL^−1, and supplemented with aminochalcones dissolved in DMSO. […] All analysis were conducted in triplicates. The plates were incubated at 30 °C (bacteria and yeast) or 25 °C (filamentous fungi) for 48–72 h. The results were measured with the Spark® Multimode Microplate Reader (Tecan, Männedorf, Switzerland) at a 560 nm wavelength. The minimal inhibitory concentration was defined as the lowest concentration of a tested compound that completely restricted the growth of the microorganism. In order to verify the obtained results, microbial cultures subjected to each concentration of aminochalcone were inoculated onto nutrient agar or YM plates and incubated as described above. The lack of growth on agar plate was a confirmation of the MIC of the tested compound. The resulting MIC values were compared with the reference substances: oxytetracycline (against bacteria), cycloheximide (against yeast) and nystatin (against fungi) (Sigma Aldrich).

[7] = system: Staphylococcus aureus DSM799; test: MIC evaluation (broth method), S. aureus; format: cell-based; settings: 48–72 h, read-out: Minimal inhibitory concentration S. aureus
Experimental: as §4

| SMILES | IC50 (HT-29) | IC50 (LS180) | IC50 (LoVo) | IC50 (LoVo/DX) | IC50 at 48 h [1] | ∆OD E. coli [2] | ∆OD S. aureus [3] | Lag-phase S. aureus [3] | ∆OD C. albicans (Candida albicans DSM1386) | Lag-phase C. albicans (Candida albicans DSM1386) | ∆OD A. alternata [4] | Lag-phase A. alternata [4] | ∆OD F. linii (Fusarium linii KB-F1) | Lag-phase F. linii (Fusarium linii KB-F1) | ∆OD A. niger [5] | Lag-phase A. niger [5] | MIC [6] | MIC [7] | melting point |
| --- | --- | --- | --- | --- | --- | --- | --- | --- | --- | --- | --- | --- | --- | --- | --- | --- | --- | --- | --- |
| CCc1ccc(/C=C/C(=O)c2cccc(N)c2)cc1 [Compound 5, 3′-Amino-4-ethylchalcone] | 3.43 ± 0.05 µg/mL (≈ 13.6 µM) | 4.16 ± 0.12 µg/mL (≈ 16.6 µM) | 1.79 ± 0.1 µg/mL (≈ 7.12 µM) | 2.35 ± 0.08 µg/mL (≈ 9.35 µM) | 4.42 ± 0.27 µg/mL (≈ 17.6 µM) | 0.0 | 0.98 | 29.5 h | 0.61 | 9.5 h | 0.39 | 12.0 h | 0.80 | 8.0 h | 0.36 | 25.5 h | 1 µg/mL (≈ 3.98 µM) |  |  |
| Nc1cccc(C(=O)/C=C/c2ccc(C(=O)O)cc2)c1 [Compound 8, 3′-Amino-4-carboxychalcone] | 12.3 ± 0.32 µg/mL (≈ 46.1 µM) | 9.22 ± 0.72 µg/mL (≈ 34.5 µM) | 31.5 ± 0.13 µg/mL (≈ 118 µM) | 27.44 ± 0.11 µg/mL (≈ 103 µM) | 15.9 ± 1.04 µg/mL (≈ 59.6 µM) | 0.0 | 0.0 |  | 0.28 | 23.0 h | 1.14 | 26.0 h | 0.45 | 13.0 h | 1.11 | 39.0 h | 0.125 µg/mL (≈ 0.468 µM) | 0.125 µg/mL (≈ 0.468 µM) |  |
| Nc1ccc(C(=O)/C=C/c2ccc(C(=O)O)cc2)cc1 [Compound 9, 4′-Amino-4-carboxychalcone] | 32.4 ± 0.99 µg/mL (≈ 121 µM) | 18.4 ± 0.19 µg/mL (≈ 68.7 µM) | 73.5 ± 0.98 µg/mL (≈ 275 µM) | 66.2 ± 1.32 µg/mL (≈ 248 µM) | 32 ± 8.11 µg/mL (≈ 120 µM) | 0.0 | 0.35 | 37.0 h | 0.97 | 8.5 h | 1.12 | 12.5 h | 0.99 | 13.5 h | 0.51 | 35.0 h | 0.125 µg/mL (≈ 0.468 µM) |  |  |
| Nc1cccc(C(=O)/C=C/c2ccc(OCc3ccccc3)cc2)c1 [Compound 14, 3′-Amino-4-benzyloxychalcone] | 7.54 ± 0.18 µg/mL (≈ 22.9 µM) | 6.51 ± 0.62 µg/mL (≈ 19.8 µM) |  | 5.19 ± 0.41 µg/mL (≈ 15.8 µM) | 7.61 ± 0.43 µg/mL (≈ 23.1 µM) | 0.0 |  | 33.5 h |  | 4.5 h |  | 12.0 h |  | 6.0 h |  | 20.5 h | 0.0625 µg/mL (≈ 0.19 µM) |  | 115 to 120 °C |
| Nc1ccc(C(=O)/C=C/c2ccc(OCc3ccccc3)cc2)cc1 [Compound 15, 4′-Amino-4-benzyloxychalcone] | 7.83 ± 0.14 µg/mL (≈ 23.8 µM) | 8.23 ± 0.49 µg/mL (≈ 25 µM) | 7.64 ± 0.53 µg/mL (≈ 23.2 µM) | 6.66 ± 0.48 µg/mL (≈ 20.2 µM) | 13.4 ± 2.78 µg/mL (≈ 40.6 µM) | 0.0 | 0.22 | 8.0 h | 0.37 | 16.0 h | 1.04 | 19.5 h | 0.50 | 11.5 h | 0.57 | 25.0 h | 0.125 µg/mL (≈ 0.379 µM) |  |  |
| COc1cc(/C=C/C(=O)c2ccc(N)cc2)ccc1OCc1ccccc1 [Compound 18, 4′-Amino-4-benzyloxy-3-methoxychalcone] | 5.01 ± 0.49 µg/mL (≈ 13.9 µM) | 4.59 ± 0.29 µg/mL (≈ 12.8 µM) | 3.54 ± 0.3 µg/mL (≈ 9.85 µM) |  |  | 0.0 | 0.26 | 33.5 h | 0.68 | 4.5 h | 0.22 | 21.5 h | 0.41 | 6.5 h | 0.65 | 28.5 h | 0.5 µg/mL (≈ 1.39 µM) |  |  |
| COc1cccc2c1C(=O)c1c(O)c3c(c(O)c1C2=O)C[C@@](O)(C(=O)CO)C[C@@H]3O[C@H]1C[C@H](N)[C@H](O)[C@H](C)O1 [Compound 20, Doxorubicin, reference compound] | 0.33 ± 0.02 µg/mL (≈ 0.607 µM) | 0.05 ± 0.02 µg/mL (≈ 0.092 µM) | 0.73 ± 0.18 µg/mL (≈ 1.34 µM) | 5.32 ± 1.44 µg/mL (≈ 9.79 µM) | 3.55 ± 1.15 µg/mL (≈ 6.53 µM) |  |  |  |  |  |  |  |  |  |  |  |  |  |  |
| CN(C)[C@@H]1C(O)=C(C(N)=O)C(=O)[C@@]2(O)C(O)=C3C(=O)c4c(O)cccc4[C@@](C)(O)[C@H]3[C@H](O)[C@@H]12 [Oxytetracycline, reference compound] |  |  |  |  |  | 0.0 | 0.0 |  |  |  |  |  |  |  |  |  | 0.5 µg/mL (≈ 1.09 µM) | 0.125 µg/mL (≈ 0.271 µM) |  |
